4 compounds from ChEMBL document CHEMBL1156413, “New acylated triterpene saponins from Silene fortunei that modulate lymphocyte proliferation” (2002) can be followed below.

Assay [1] deals with Jurkat. As to the kind of experiment: Cytotoxicity against human Jurkat cells at 5 to 10 uM. In kind it is functional, cell-based.
The test system of assay [2] is Jurkat. As to the kind of experiment: Induction of apoptosis in human Jurkat cells assessed as early apoptotic cells at 10 uM after 18 hrs using annexin V-FITC staining by flow cytometry. It is filed as functional, cell-based. A general note: Flow cytometry measures light scatter and fluorescence of single cells or particles in a stream.
For assay [3], the system named is Jurkat. As to the kind of experiment: Cytotoxicity against human Jurkat cells up to 10 uM. In kind it is functional, cell-based.
In assay [4] the test system is Jurkat. As to the kind of experiment: Immunomodulatory activity in human Jurkat cells assessed as stimulation index at 0.001 to 5 uM after 36 hrs by [3H]thymidine incorporation assay. It is filed as functional. In general terms: Incorporation of labelled thymidine or its analogues reports DNA synthesis.
The test system of assay [5] is Jurkat. As to the kind of experiment: Immunomodulatory activity in human Jurkat cells after 36 hrs by [3H]thymidine incorporation assay. It is filed as functional, cell-based.
Assay [6] relates to Jurkat. As to the kind of experiment: Cytotoxicity against human Jurkat cells at 1 uM. In kind it is functional, cell-based.
Assay [7] relates to Jurkat. As to the kind of experiment: Induction of apoptosis in human Jurkat cells assessed as enhancement of early apoptotic cells population at 10 uM after 18 hrs using annexin V-FITC staining by flow cytometry relative to control. In kind it is functional.
Assay [8] relates to Jurkat. As to the kind of experiment: Cytotoxicity against human Jurkat cells at 5 uM. In kind it is functional, cell-based.

SMILES strings stand for the structures. Calls of active or inactive are those of the source. No cut-off for these calls is given here.

Consider `C[C@@H]1O[C@@H](O[C@H]2[C@H](OC(=O)[C@]34CCC(C)(C)C[C@H]3C3=CC[C@@H]5[C@@]6(C)CC[C@H](O[C@@H]7O[C@H](C(=O)O)[C@@H](O)[C@H](O)[C@H]7O[C@@H]7O[C@H](CO)[C@H](O)[C@H](O)[C@H]7O)[C@@](C)(C=O)[C@@H]6CC[C@@]5(C)[C@]3(C)C[C@H]4O)O[C@H](C)[C@H](O)[C@@H]2O)[C@H](O)[C@H](O)[C@H]1O`, for which the outcome in the assay with Jurkat [1] and with Jurkat [2] was inactive.

As to `CC(=O)OC[C@H]1O[C@@H](O[C@H]2[C@@H](OC(C)=O)[C@@H](C)O[C@@H](OC(=O)[C@]34CCC(C)(C)C[C@H]3C3=CC[C@@H]5[C@@]6(C)CC[C@H](O[C@@H]7O[C@H](C(=O)O)[C@@H](O)[C@H](O)[C@H]7O[C@@H]7O[C@H](CO)[C@H](O)[C@H](O)[C@H]7O)[C@@](C)(C=O)[C@@H]6CC[C@@]5(C)[C@]3(C)C[C@H]4O)[C@@H]2O[C@@H]2O[C@@H](C)[C@H](O[C@@H]3OC[C@@H](O)[C@H](O[C@@H]4OC[C@H](O)[C@H](O)[C@H]4O[C@@H]4OC[C@H](O)[C@H](O)[C@H]4O)[C@H]3O)[C@@H](O)[C@H]2O)[C@H](O)[C@@H](O)[C@@H]1O`, the outcome in the assay on Jurkat [3] was inactive. In the assay with Jurkat [4], the Activity is 1.56.

For `COc1ccc(/C=C/C(=O)O[C@@H]2[C@H](OC(C)=O)[C@@H](O[C@@H]3O[C@@H](C)[C@H](O)[C@@H](O)[C@H]3O)[C@H](OC(=O)[C@]34CCC(C)(C)C[C@H]3C3=CC[C@@H]5[C@@]6(C)CC[C@H](O[C@@H]7O[C@H](C(=O)O)[C@@H](O)[C@H](O)[C@H]7O[C@@H]7O[C@H](CO)[C@H](O)[C@H](O)[C@H]7O)[C@@](C)(C=O)[C@@H]6CC[C@@]5(C)[C@]3(C)C[C@H]4O)O[C@@H]2C)cc1`, the Activity with Jurkat [4] was 1.44; in the assay on Jurkat [5], “Dose-dependent effect”. In the assay on Jurkat [6], the result was Active. The “fold change (FC)” value in the assay on Jurkat [7] is 2.8.

Regarding `COc1ccc(/C=C/C(=O)O[C@@H]2[C@H](O)[C@@H](O[C@@H]3O[C@@H](C)[C@H](O)[C@@H](O)[C@H]3O)[C@H](OC(=O)[C@]34CCC(C)(C)C[C@H]3C3=CC[C@@H]5[C@@]6(C)CC[C@H](O[C@@H]7O[C@H](C(=O)O)[C@@H](O)[C@H](O)[C@H]7O[C@@H]7O[C@H](CO)[C@H](O)[C@H](O)[C@H]7O)[C@@](C)(C=O)[C@@H]6CC[C@@]5(C)[C@]3(C)C[C@H]4O)O[C@@H]2C)cc1` (mixture of isomers) [JENISSEENSOSIDE C/D], the Activity in the assay with Jurkat [4] came to 1.36. In the assay on Jurkat [8], the outcome was Active. For the same compound, the “fold change (FC)” value in the assay with Jurkat [7] is 9.
